Assay results taken from patent publication US6596718B1, “7-Morpholin-4yl-benzothiazole amide derivatives” (Hoffmann-La Roche Inc., priority 2001, dated 2003).

Point of comparison: `COc1cccc(NC(=O)c2nc3c(OC)ccc(N4CCOCC4)c3s2)c1` [Example 11, 4-Methoxy-7-morpholin-4-yl-benzothiazole-2-carboxylic acid (3-methoxy-phenyl)-amide], melting point 160 °C. Against it:
- COc1ccc(N2CCOCC2)c2sc(C(=O)NCC(=O)c3cccs3)nc12 [Example 78, 4-Methoxy-7-morpholin-4-yl-benzothiazole-2-carboxylic acid (2-oxo-2-thiophen-2-yl-ethyl)-amide] — higher, 171 to 173 °C
- COc1cccc(CNC(=O)c2nc3c(OC)ccc(N4CCOCC4)c3s2)c1 [Example 27, 4-Methoxy-7-morpholin-4-yl-benzothiazole-2-carboxylic acid 3-methoxy-benzylamide] — lower, 140 to 144 °C
- COc1ccc(N2CCOCC2)c2sc(C(=O)NC3CCCC3)nc12 [Example 8, 4-Methoxy-7-morpholin-4-yl-benzothiazole-2-carboxylic acid cyclopentylamide] — higher, 174 to 175 °C
- COc1ccc(N2CCOCC2)c2sc(C(=O)Nc3ccc(C)nc3)nc12 [Example 82, 4-Methoxy-7-morpholin-4-yl-benzothiazole-2-carboxylic acid (6-methyl-pyridin-3-yl)-amide] — lower, 145 to 147 °C
- COc1ccc(N2CCOCC2)c2sc(C(=O)Nc3ccccn3)nc12 [Example 19, 4-Methoxy-7-morpholin-4-yl-benzothiazole-2-carboxylic acid pyridin-2-ylamide] — higher, 177 to 181 °C
- COc1ccc(N2CCOCC2)c2sc(C(=O)NNC(=O)c3ccncc3)nc12 [Example 45, Isonicotinic acid N′-(4-methoxy-7-morpholin-4-yl-benzothiazole-2-carbonyl)-hydrazide] — higher, 171 to 174 °C
- COc1ccc(N2CCOCC2)c2sc(C(=O)NC(c3ccccc3)c3ccccn3)nc12 (stereo not drawn) [Example 67, 4-Methoxy-7-morpholin-4-yl-benzothiazole-2-carboxylic acid (phenyl-pyridin-2-yl-methyl)-amide] — higher, 219 to 221 °C
- COc1ccc(N2CCOCC2)c2sc(C(=O)NCCc3ccccc3F)nc12 [Example 58, 4-Methoxy-7-morpholin-4-yl-benzothiazole-2-carboxylic acid [2-(2-fluoro-phenyl)-ethyl]-amide] — lower, 151 to 153 °C
- COc1ccc(N2CCOCC2)c2sc(C(=O)NCCc3cccc(C(F)(F)F)c3)nc12 [Example 60] — lower, 106 to 108 °C
- COc1ccc(N2CCOCC2)c2sc(C(=O)NCCNC(=O)c3ccc(Cl)cc3)nc12 [Example 28, 4-Methoxy-7-morpholin-4-yl-benzothiazole-2-carboxylic acid [2-(4-chloro-benzoylamino)-ethyl]-amide] — higher, 237 to 240 °C
- COc1ccc(N2CCOCC2)c2sc(C(=O)NCCN3C(=O)c4ccccc4C3=O)nc12 [Example 34, 4-Methoxy-7-morpholin-4-yl-benzothiazole-2-carboxylic acid [2-(1,3-dioxo-1,3-dihydro-isoindol-2-yl)-ethyl]-amide] — higher, 231 to 233 °C
- COc1ccc(CNC(=O)c2nc3c(OC)ccc(N4CCOCC4)c3s2)cc1 [Example 26, 4-Methoxy-7-morpholin-4-yl-benzothiazole-2-carboxylic acid 4-methoxy-benzylamide] — higher, 164 to 168 °C
- COc1ccc(N2CCOCC2)c2sc(C(=O)NCC(=O)c3ccccc3)nc12 [Example 39, 4-Methoxy-7-morpholin-4-yl-benzothiazole-2-carboxylic acid (2-oxo-2-phenyl-ethyl)-amide] — higher, 197 to 200 °C
- COc1ccc(N2CCOCC2)c2sc(C(=O)NCc3csc4ccccc34)nc12 [Example 69, 4-Methoxy-7-morpholin-4-yl-benzothiazole-2-carboxylic acid (benzo[b]thiophen-3-ylmethyl)-amide] — higher, 187 to 189 °C
- COc1ccc(N2CCOCC2)c2sc(C(=O)NCCc3ccncc3)nc12 [Example 48, 4-Methoxy-7-morpholin-4-yl-benzothiazole-2-carboxylic acid (2-pyridin-4-yl-ethyl)-amide] — higher, 185 to 188 °C
- COc1ccc(N2CCOCC2)c2sc(C(=O)NC(C)Cc3cc4ccccc4o3)nc12 (stereo not drawn) [Example 84, 4-Methoxy-7-morpholin-4-yl-benzothiazole-2-carboxylic acid (2-benzofuran-2-yl-1-methyl-ethyl)-amide] — lower, 144 to 146 °C
- COc1ccc(N2CCOCC2)c2sc(C(=O)NCC3CCCCC3)nc12 [Example 35, 4-Methoxy-7-morpholin-4-yl-benzothiazole-2-carboxylic acid cyclohexylmethyl-amide] — lower, 150 to 151 °C
- COc1ccc(N2CCOCC2)c2sc(C(=O)NCc3cccnc3)nc12 [Example 18, 4-Methoxy-7-morpholin-4-yl-benzothiazole-2-carboxylic acid (pyridin-3-ylmethyl)-amide] — higher, 181 to 184 °C
- COc1ccc(N2CCOCC2)c2sc(C(=O)NCCc3ccccn3)nc12 [Example 38, 4-Methoxy-7-morpholin-4-yl-benzothiazole-2-carboxylic acid (2-pyridin-2-yl-ethyl)-amide] — higher, 184 to 185 °C
- COc1ccc(N2CCOCC2)c2sc(C(=O)N[C@H]3CCCC[C@@H]3O)nc12 (stereo in doubt) [Example 72, 4-Methoxy-7-morpholin-4-yl-benzothiazole-2-carboxylic acid (2-hydroxy-cyclohexyl)-amide] — lower, 110 to 115 °C
- COc1ccc(N2CCOCC2)c2sc(C(=O)Nc3ccncc3)nc12 [Example 53, 4-Methoxy-7-morpholin-4-yl-benzothiazole-2-carboxylic acid pyridin-4-ylamide] — higher, 206 to 207 °C
- COc1ccc(N2CCOCC2)c2sc(C(=O)NNc3ccccc3)nc12 [Example 51, 4-Methoxy-7-morpholin-4-yl-benzothiazole-2-carboxylic acid N′-phenyl-hydrazide] — higher, 226 to 227 °C

Molecule `COc1ccc(N2CCOCC2)c2sc(C(=O)NNC(=O)c3ccccc3)nc12` [Example 46, 4-Methoxy-7-morpholin-4-yl-benzothiazole-2-carboxylic acid N′-benzoyl-hydrazide] has a melting point of over 260 °C.
